In patent US12281057B2 (VERTEX PHARMACEUTICALS INCORPORATED, priority 2017, dated 2025) one finds IC50 data, which are given here for 22 molecules.

The first assay deals with truncated form of human NaV 1.8 with full channel activity (Homo sapiens, UniProt Q9Y5Y9). The experiment in a line: E-VIPR Assay Method A for detecting and measuring Nav inhibition (HEK cells, membrane potential FRET dyes, electrical stimulation). As to conditions: HEK cells expressing human NaV 1.8, HS (human serum) in compound loading buffer, 11 point dose response, top dose 3 μM, Table 20, read-out: Nav 1.8 MedChem Optical Assay EVIPR Assay Method A HS IC50. It counts as cell-based. The gist of the method: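 HEK cells expressing truncated human NaV1.8, loaded with CC2-DMPE/DiSBAC6(3) FRET dyes, incubated 30 min at room temp with compound (0.625% DMSO), then electrically stimulated (1.25 A biphasic, 10 Hz, 10 s). Inhibition from 460/580 nm ratio Rf/Ri, normalised to positive and DMSO controls.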
Chain of truncated form of human NaV 1.8 with full channel activity (Q9Y5Y9 126-1722 limits assumed): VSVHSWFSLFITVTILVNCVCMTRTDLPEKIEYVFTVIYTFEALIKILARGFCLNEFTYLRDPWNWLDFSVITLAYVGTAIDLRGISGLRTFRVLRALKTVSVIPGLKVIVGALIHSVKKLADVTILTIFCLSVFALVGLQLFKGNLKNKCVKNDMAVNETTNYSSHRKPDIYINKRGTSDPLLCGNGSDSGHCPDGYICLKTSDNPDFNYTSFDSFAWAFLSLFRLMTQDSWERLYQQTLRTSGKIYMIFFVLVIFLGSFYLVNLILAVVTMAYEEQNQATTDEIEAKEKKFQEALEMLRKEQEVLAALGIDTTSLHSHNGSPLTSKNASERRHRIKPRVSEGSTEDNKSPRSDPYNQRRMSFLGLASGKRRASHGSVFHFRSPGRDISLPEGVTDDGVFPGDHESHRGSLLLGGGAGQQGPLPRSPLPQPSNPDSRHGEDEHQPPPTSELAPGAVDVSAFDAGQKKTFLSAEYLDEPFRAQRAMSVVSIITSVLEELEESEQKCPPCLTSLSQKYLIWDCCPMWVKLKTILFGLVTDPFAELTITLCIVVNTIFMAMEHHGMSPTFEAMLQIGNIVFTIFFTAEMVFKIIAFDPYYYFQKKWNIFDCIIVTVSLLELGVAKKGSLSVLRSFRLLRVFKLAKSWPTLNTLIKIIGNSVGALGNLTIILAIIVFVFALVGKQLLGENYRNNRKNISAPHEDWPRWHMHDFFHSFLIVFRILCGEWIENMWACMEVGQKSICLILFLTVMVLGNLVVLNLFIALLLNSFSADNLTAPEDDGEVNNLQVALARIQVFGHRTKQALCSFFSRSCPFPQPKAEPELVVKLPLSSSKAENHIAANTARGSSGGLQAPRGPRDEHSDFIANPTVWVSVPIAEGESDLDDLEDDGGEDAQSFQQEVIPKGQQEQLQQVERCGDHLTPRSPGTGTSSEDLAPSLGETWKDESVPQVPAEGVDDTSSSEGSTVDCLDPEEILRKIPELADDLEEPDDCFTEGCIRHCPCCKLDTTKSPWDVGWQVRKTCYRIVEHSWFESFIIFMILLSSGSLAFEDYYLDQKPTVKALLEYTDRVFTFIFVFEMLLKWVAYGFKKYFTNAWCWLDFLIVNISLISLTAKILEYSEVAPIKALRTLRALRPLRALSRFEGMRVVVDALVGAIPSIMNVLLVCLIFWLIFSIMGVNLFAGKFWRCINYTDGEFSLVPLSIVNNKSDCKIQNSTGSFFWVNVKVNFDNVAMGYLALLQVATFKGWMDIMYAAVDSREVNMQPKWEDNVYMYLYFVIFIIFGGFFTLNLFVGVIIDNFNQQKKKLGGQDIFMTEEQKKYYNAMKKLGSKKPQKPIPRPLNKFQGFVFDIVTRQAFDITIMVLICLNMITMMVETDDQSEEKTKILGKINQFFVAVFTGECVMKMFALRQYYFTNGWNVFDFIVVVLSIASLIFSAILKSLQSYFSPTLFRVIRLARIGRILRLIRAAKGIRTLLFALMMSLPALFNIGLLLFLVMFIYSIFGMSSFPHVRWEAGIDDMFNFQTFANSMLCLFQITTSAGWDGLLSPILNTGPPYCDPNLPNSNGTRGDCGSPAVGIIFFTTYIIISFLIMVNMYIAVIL
For `COc1cc(OC(F)(F)F)ccc1Oc1ccc(C(F)(F)F)c(F)c1C(=O)Nc1ccnc(C(N)=O)c1` [Compound 4, 4-[[2-fluoro-6-[2-methoxy-4-(trifluoromethoxy)phenoxy]-3-(trifluoromethyl)benzoyl]amino]pyridine-2-carboxamide], the IC50 was 2 nM.

Regarding `[2H]C([2H])([2H])Oc1cc(OC(F)(F)F)ccc1Oc1ccc(OC(F)(F)F)c(F)c1C(=O)Nc1ccnc(C(N)=O)c1` [Compound 8, 4-[[2-fluoro-6-[2-(trideuteriomethoxy)-4-(trifluoromethoxy)phenoxy]-3-(trifluoromethoxy)benzoyl]amino]pyridine-2-carboxamide], the concentration for half-maximal inhibition (IC50) worked out at 3 nM.

With `COc1cc(OC(F)(F)F)ccc1Oc1ccc(C(F)(F)F)c(F)c1C(=O)Nc1ccc(F)c(C(N)=O)c1` [Compound 2, N-(3-carbamoyl-4-fluoro-phenyl)-2-fluoro-6-[2-methoxy-4-(trifluoromethoxy)phenoxy]-3-(trifluoromethyl)benzamide], the IC50 amounted to 1 nM.

With `COc1cc(OC(F)(F)F)ccc1Oc1ccc(Cl)c(F)c1C(=O)Nc1ccnc(C(N)=O)c1` [Compound 5, 4-[[3-chloro-2-fluoro-6-[2-methoxy-4-(trifluoromethoxy)phenoxy]benzoyl]amino]pyridine-2-carboxamide], the IC50 stood at 2 nM.

Turning to `COc1cc(OC(F)(F)F)ccc1Oc1cc(OC(F)F)cc(F)c1C(=O)Nc1ccnc(C(N)=O)c1` [Compound 20, 4-[[4-(difluoromethoxy)-2-fluoro-6-[2-methoxy-4-(trifluoromethoxy)phenoxy]benzoyl]amino]pyridine-2-carboxamide], the IC50 is 10 nM.

Still in this assay, the particulars now being: HEK cells expressing human NaV 1.8, HS (human serum) in compound loading buffer, 11 point dose response, top dose 3 μM, Table 20A, read-out: Nav 1.8 MedChem Optical Assay EVIPR Assay Method A HS IC50.
For `[2H]c1cc(F)c(C(N)=O)cc1NC(=O)c1c(Oc2c([2H])cc(OC(F)(F)F)c([2H])c2[2H])ccc(C(F)(F)F)c1F` [Compound 213, N-(5-Carbamoyl-2-deuterio-4-fluoro-phenyl)-2-fluoro-6-[2,3,6-trideuterio-4-(trifluoromethoxy)phenoxy]-3-(trifluoromethyl)benzamide], the concentration for half-maximal inhibition (IC50) was determined as 9 nM.

Take `Cc1cnc(C(N)=O)cc1NC(=O)c1c(Oc2ccc(OC(F)(F)F)c(F)c2)ccc(C(F)(F)F)c1F` [Compound 246, 4-[[2-fluoro-6-[3-fluoro-4-(trifluoromethoxy)phenoxy]-3-(trifluoromethyl)benzoyl]amino]-5-methyl-pyridine-2-carboxamide]: the IC50 was 21 nM.

As for `COc1cc(OC(F)(F)F)ccc1Oc1cc(C2(C)CC2)ncc1C(=O)Nc1ccc(F)c(C(N)=O)c1` [Compound 102, N-(3-Carbamoyl-4-fluoro-phenyl)-4-[2-methoxy-4-(trifluoromethoxy)phenoxy]-6-(1-methylcyclopropyl)pyridine-3-carboxamide], the IC50 came to 22 nM.

On to `COc1cc(OC(F)(F)F)ccc1Oc1cncc(F)c1C(=O)Nc1ccnc(C(N)=O)c1` [Compound 165, N-(2-Carbamoyl-4-pyridyl)-3-fluoro-5-[2-methoxy-4-(trifluoromethoxy)phenoxy]pyridine-4-carboxamide], for which the IC50 was 340 nM.

With `COc1ccc(Oc2ccc(C(F)(F)F)c(F)c2C(=O)Nc2ccnc(C(N)=O)c2)c(OC)c1` [Compound 195, 4-[[6-(2,4-Dimethoxyphenoxy)-2-fluoro-3-(trifluoromethyl)benzoyl]amino]pyridine-2-carboxamide], the IC50 stood at 11 nM.

Regarding `COc1cc(OC(F)(F)F)ccc1Oc1ccc(C(F)(F)F)c(F)c1C(=O)Nc1cc(C(N)=O)ncc1Cl` [Compound 152, 5-Chloro-4-[[2-fluoro-6-[2-methoxy-4-(trifluoromethoxy)phenoxy]-3-(trifluoromethyl)benzoyl]amino]pyridine-2-carboxamide], the half-maximal inhibitory concentration (IC50) came to 17 nM.

As for `COc1cc(OC(F)(F)F)ccc1Oc1cnc(C(F)(F)F)c(F)c1C(=O)Nc1ccc(F)c(C(N)=O)c1` [Compound 45, N-(3-carbamoyl-4-fluoro-phenyl)-3-fluoro-5-[2-methoxy-4-(trifluoromethoxy)phenoxy]-2-(trifluoromethyl)pyridine-4-carboxamide], the half-maximal inhibitory concentration (IC50) turned out to be 1 nM.

As for `COc1cc(OC(F)(F)F)ccc1Oc1cnc(C(F)(F)F)c(OC)c1C(=O)Nc1ccnc(C(N)=O)c1` [Compound 166, N-(2-Carbamoyl-4-pyridyl)-3-methoxy-5-[2-methoxy-4-(trifluoromethoxy)phenoxy]-2-(trifluoromethyl)pyridine-4-carboxamide], the IC50 worked out at 5 nM.

For `COc1cc(OC(F)(F)F)ccc1Oc1ccc(C(F)(F)F)c(OC)c1C(=O)Nc1ccc(C(N)=O)cn1` [Compound 205, 6-[[2-Methoxy-6-[2-methoxy-4-(trifluoromethoxy)phenoxy]-3-(trifluoromethyl)benzoyl]amino]pyridine-3-carboxamide], the IC50 stood at 150 nM.

On to `NC(=O)c1cc(NC(=O)c2c(Oc3ccc(OC(F)(F)F)cc3)ccc(C(F)(F)F)c2F)ccn1` [Compound 48, 4-[[2-fluoro-6-[4-(trifluoromethoxy)phenoxy]-3-(trifluoromethyl)benzoyl]amino]pyridine-2-carboxamide], for which the IC50 was determined as 23 nM.

Regarding `COc1cc(OC(F)(F)F)ccc1Oc1cc(C(F)(F)F)ccc1C(=O)Nc1cccc(C(N)=O)c1` [Compound 28, N-(3-Carbamoylphenyl)-2-[2-methoxy-4-(trifluoromethoxy)phenoxy]-4-(trifluoromethyl)benzamide], the IC50 was determined as 108 nM.

Turning to `CNC(=O)c1cc(NC(=O)c2c(Oc3ccc(OC(F)(F)F)cc3OC)ccc(C(F)(F)F)c2F)ccc1F` [Compound 99, 2-fluoro-N-[4-fluoro-3-(methylcarbamoyl)phenyl]-6-[2-methoxy-4-(trifluoromethoxy)phenoxy]-3-(trifluoromethyl)benzamide], the IC50 stood at 3 nM.

As to `Cn1nccc1-c1cc(F)ccc1Oc1ccc(C(F)(F)F)c(F)c1C(=O)Nc1ccc(F)c(C(N)=O)c1` [Compound 135, N-(3-Carbamoyl-4-fluoro-phenyl)-2-fluoro-6-[4-fluoro-2-(2-methylpyrazol-3-yl)phenoxy]-3-(trifluoromethyl)benzamide], the IC50 is 140 nM.

Regarding `NC(=O)c1cc(NC(=O)c2c(Oc3ccc(OC(F)(F)F)cc3F)ccc(C(F)(F)F)c2F)ccn1` [Compound 90, 4-[[2-fluoro-6-[2-fluoro-4-(trifluoromethoxy)phenoxy]-3-(trifluoromethyl)benzoyl]amino]pyridine-2-carboxamide], the IC50 came out at 38 nM.

In the case of `COc1cc(OC(F)(F)F)ccc1Oc1cc(C(F)(F)F)cc(F)c1C(=O)Nc1ccc(C(N)=O)nc1` [Compound 187, 5-[[2-Fluoro-6-[2-methoxy-4-(trifluoromethoxy)phenoxy]-4-(trifluoromethyl)benzoyl]amino]pyridine-2-carboxamide], the IC50 turned out to be 53 nM.

In the case of `[2H]C([2H])([2H])Oc1cc(OC(F)(F)F)ccc1Oc1ccc(OC(F)(F)F)c(F)c1C(=O)Nc1ccc(C(N)=O)nc1` [Compound 167, 5-[[2-fluoro-6-[2-(trideuteriomethoxy)-4-(trifluoromethoxy)phenoxy]-3-(trifluoromethoxy)benzoyl]amino]pyridine-2-carboxamide], the IC50 is 45 nM.

`[2H]C([2H])([2H])Oc1cc(OC(F)(F)F)ccc1Oc1cc(OC(F)F)cc(F)c1C(=O)Nc1ccc(C(N)=O)nc1` [Compound 174, 5-[[4-(Difluoromethoxy)-2-fluoro-6-[2-(trideuteriomethoxy)-4-(trifluoromethoxy)phenoxy]benzoyl]amino]pyridine-2-carboxamide]: the IC50 turned out to be 88 nM.
